Measured values as given in paper PMC4215638, “J-147 a Novel Hydrazide Lead Compound to Treat Neurodegeneration: CeeTox™ Safety and Genotoxicity Analysis” (Journal of neurology & neurophysiology, 2013).

What was measured:
[1] = tested on: rat hepatoma (H4IIE) cell line; assay: Lipid peroxidation measured as 8-isoprostane ELISA; assay type: cell-based; design: key to Membrane Lipid Peroxidation: 0=No Change; 1=Modest increase with maximum values<15 pg/mL; 2=Concentration related increase with maximum values>15 pg/mL; 3=Concentration related increase with a maximum value>30 pg/mL; conditions: H4IIE cells; for Membrane Lipid Peroxidation: 8-isoprostane score
Protocol: (§1) Rat hepatoma derived H4IIE cells were used as the test system because the cell have a rapid doubling time in culture (i.e. 22 hours). The culture medium used for these cells was Eagles Minimum Essential Medium (MEM) with 10% bovine serum and 10% calf serum (Invitrogen). H4IIE cells were seeded into 96-well plates and allowed to equilibrate for approximately 48 hr before drug assay to allow cells to move into a stable growth phase prior to treatment. Following the equilibration period the cells were exposed to J-147 at concentrations of 1–300 μM. Three to 7 replicates were done for each assay to construct concentration-response curves. Solubility was determined by Nephalometry techniques immediately after dosing and prior to harvesting the cells at 6 or 24 hr. Following the incubation period, cells or their supernatant (culture medium) were analyzed for changes in cell proliferation (cell mass), membrane leakage, mitochondrial function, oxidative stress, and apoptosis. The resultant exposure concentration response curves were graphed and analyzed for determining the concentration that produced a half maximal response or TC50 [28, 30].
8-ISO levels were determined using an ELISA (Cayman Chemical Inc). 8-ISO is a member of a family of eicosanoids produced nonenzymatically by random oxidation of tissue phospholipids by oxygen radicals. Therefore, an increase in 8-ISO is an indirect measure of increased lipid peroxidation. At the end of the exposure period, plates were either analyzed immediately or stored at −80°C until needed for analysis. Color development, which is […] proportional to the amount of 8-ISO present in the sample, was read on a Packard Fusion or equivalent plate reader at 415 nm. Background absorbance produced from Ellman’s reagent is subtracted from all wells. Non-specific binding is subtracted from the maximum binding wells to give a corrected maximum binding expressed as Bo. The percent of bound (B) relative to maximum binding capacity (Bo) for all unknown samples and for standards was determined an expressed as (%B/Bo). The %B/Bo for standards was plotted against the log of 8-ISO added to yield the final standard curve. This curve was used to convert %B/Bo to pg 8-ISO/mL of sample.

[2] = tested on: Caspase 3 in H4IIE cells; assay: Apoptosis: caspase 3 activity (DEVD-AMC); assay type: cell-based, rat
Protocol: as §1
Caspase 3 activity was determined using a caspase substrate (DEVD, Asp-Glu-Val-Asp) labeled with a fluorescent molecule, 7-Amino-4-methylcoumarin (AMC). Caspase 3 cleaves the tetrapeptide between D and AMC, thus releasing the fluorogenic green AMC [28]. Following the test article exposure to cells in 96-well plates, medium was aspirated from plates and PBS added to each well. Plates were stored at −80°C to lyse cells and store samples until further analysis. On the day of analysis, plates were removed from freezer and thawed. […] AMC release was measured in a spectrofluorometer at an excitation wavelength of 360 nm and an emission wavelength of 460 nm. Values are expressed as relative fluorescent units (RFU). […]

[3] = tested on: rat hepatoma (H4IIE) cell line; assay: Intracellular glutathione (GSH) levels; assay type: cell-based; conditions: H4IIE cells; for Percent Change in Total GSH: decrease indicated by (−), increase by (+)
Protocol: as §1
Intracellular glutathione levels were determined as described previously. Briefly, the sulfhydryl group of GSH reacts with DTNB (5,5′-dithio-bis-2-nitrobenzoic acid, Ellman’s reagent) and produces a yellow colored 5-thio-2-nitrobenzoic acid (TNB). The mixed disulfide, GSTNB (between GSH and TNB) that is concomitantly produced, is reduced by glutathione reductase to recycle the GSH and produce more TNB. The rate of TNB production is directly proportional to the concentration of GSH in the sample. Measurement of the absorbance of TNB at 405 or 412 nm provides an accurate estimation of GSH in the sample. At the end of the exposure period, the medium was removed from the cells and metaphosphoric acid (MPA) was added to each well. Plates were then shaken for 5 min at room temperature and stored at −20°C until needed. The sample plates were thawed just prior to analysis and centrifuged at > 2000 × g for 2 min. Sample aliquots were removed and transferred to a clean 96-well plate along with appropriate standard curve controls. Sample pH was neutralized just prior to analysis and each well received an aliquot of PBS reaction buffer containing Ellman’s reagent, NADPH, and glutathione reductase. The plates were shaken for 15–30 min at room temperature and glutathione content was determined colorimetrically with a Packard Fusion reader at 415 nm. The assay is based on the concept that all GSH is oxidized to GSSG by DTNB reagent. Two molecules of GSH are required to make one molecule of GSSG (oxidized glutathione). Total GSH was determined by reducing GSSG to 2GSH with glutathione reductase. A standard curve was prepared with oxidized glutathione (GSSG) over a range of concentrations. These concentrations are then converted to glutathione equivalents (GSX) essentially by multiplying the GSSG standard concentrations by 2. The amount of GSX expressed as pmoles/well was determined using the standard curve and regression analysis and are expressed as percent of control;

[4] = Drug solubility in culture medium (light scattering, Nepheloskan); assay type: physicochemical; conditions: complete culture medium with serum; medium with 10% bovine serum and 10% calf serum, 37°C; read-out: Solubility in the culture medium system
Protocol: The final concentration of DMSO in the 0–100 μM solutions was 0.5% and at the 300 μM solution DMSO was 1.5%. The final dosing solutions were prepared in Eagles Minimum Essential Medium. All experiments that used DMSO as the drug solvent also included a DMSO negative control. Negative controls of medium plus DMSO (0.5%) were included with and without cells. A positive control for complete cell death received 1 mM digitonin in medium on the day of dosing.
The samples were evaluated using light scattering with a Nepheloskan instrument. A reading that was greater than or equal to 3 times background was considered the limit of solubility.

[5] = tested on: HT22 and primary cell; design: method as in PMID 22194796, PMID 23673233; conditions: HT22 and primary cortical cells, IAA or glutamate toxicity; read-out: EC50 neuroprotection (cell survival); cited from earlier work
[6] = tested on: low-density cultured rat cortical neurons; conditions: previously published; read-out: EC50 neurotrophism; cited from earlier work

Compound	Membrane Lipid Peroxidation [1]	Caspase 3 Activity (Index/Dose): dose ([2]; dose part of cell)	Caspase 3 Activity (Index/Dose): index ([2]; index part of cell)	Total GSH TC50 [3]	Percent Change in Total GSH [3]	Effect on 8-isoprostane [1]	Effect on caspase-3 activity [2]	solubility [4]	EC50 [5]	EC50 [6]
CC[C@@]1(O)C(=O)OCc2c1cc1n(c2=O)Cc2cc3ccccc3nc2-1 [Camptothecin, camptothecin]	1 (1=Modest increase with maximum values<15 pg/mL)	1 (0–200=1)	3 (400–600=3)	3.9 µM	−64.5%	–	–	–	–	–
COc1cccc(/C=N/N(C(=O)C(F)(F)F)c2ccc(C)cc2C)c1 [J-147, (E)-N-(2,4-Dimethylphenyl)-2,2,2-trifluoro-N′-(3-methoxybenzylidene) acetohydrazide]	0	–	–	217 µM	−84.9%	did not have any effect	did not affect	≥ 300 µM	0.06 to 0.115 µM	0.025 µM
C=C(C)[C@H]1Cc2c(ccc3c2O[C@@H]2COc4cc(OC)c(OC)cc4[C@@H]2C3=O)O1 [Rotenone, rotenone]	0	–	–	0.3 µM	−100.0%	–	–	–	–	–
